Test results from US10774064B2 (Cadent Therapeutics, Inc., priority 2016, dated 2020).

molecular target: T1, small-conductance Ca2+-activated K+ channels (SK channels, subtype 2) (Homo sapiens, UniProt Q9H2S1); assay: whole-cell patch-clamp of ionic current through SK2 channels in HEK293 cells (SC100); type: cell-based; settings: concentration that increases the basal current by 100%; HEK293 cells expressing SK2 channels
T1 construct: expressed in transfected cells; host or cells: HEK293
Protocol: The biological activity was determined as follows. The ionic current through small-conductance Ca^2+-activated K^+ channels (SK channels, subtype 2) was measured using the whole-cell configuration of the patch-clamp technique in a patch-clamp set-up using HEK293 tissue culture cells expressing SK2 channels as described in Hougaard et al., British Journal of Pharmacology 151, 655-665, May 8, 2007, the entire teachings of which are incorporated herein by reference. In one aspect, a compound is defined to be an SK PAM if the compound increases current in this assay, for example, if the SC100 value of the compound is less than or equal to 10 μM as determined by this assay. The SC100 value is defined to be the concentration of compound that increases the basal current by 100%.

Row | Compound | SC100
1 | Cc1cc(C)n(-c2nc3c(c(NC4CCC(F)(F)CC4)n2)CCN(CCO)C3)n1 [Compound 118, 2-(4-((4,4-difluorocyclohexyl)amino)-2-(3,5-dimethyl-1H-pyrazol-1-yl)-5,8-dihydropyrido[3,4-d]pyrimidin-7(6H)-yl)ethan-1-ol] | + (+ means >1 uM)
2 | Cc1cc(-n2ccc(C)n2)nc(NC2CCC(F)(F)CC2)n1 [Compound 120, N-(4,4-difluorocyclohexyl)-4-methyl-6-(3-methyl-1H-pyrazol-1-yl)pyrimidin-2-amine] | ++ (++ means 200 nM-1000 nM)
3 | Cc1cc(C)n(-c2nc3c(c(NC4CCC(F)(F)CC4)n2)CCN(CC(N)=O)C3)n1 [Compound 121, 2-(4-((4,4-difluorocyclohexyl)amino)-2-(3,5-dimethyl-1H-pyrazol-1-yl)-5,8-dihydropyrido[3,4-d]pyrimidin-7(6H)-yl)acetamide] | + (+ means >1 uM)
4 | Cc1cc(C)n(-c2nc3c(c(NC4CCC(F)(F)CC4)n2)CCN(CC#N)C3)n1 [Compound 122, 2-(4-((4,4-difluorocyclohexyl)amino)-2-(3,5-dimethyl-1H-pyrazol-1-yl)-5,8-dihydropyrido [3,4-d]pyrimidin-7(6H)-yl)acetonitrile] | + (+ means >1 uM)
5 | Cc1cc(C)n(-c2nc3c(c(NC4CCC(F)(F)CC4)n2)CCN(C(C)C)C3)n1 [Compound 123, N-(4,4-difluorocyclohexyl)-2-(3,5-dimethyl-1H-pyrazol-1-yl)-7-isopropyl-5,6,7,8-tetrahydropyrido[3,4-d]pyrimidin-4-amine] | + (+ means >1 uM)
6 | Cc1cc(C)n(-c2nc(NC3CCC(F)(F)CC3)cc(NC(C)c3nccs3)n2)n1 (centres unmarked) [Compound 124, N4-(4,4-difluorocyclohexyl)-2-(3,5-dimethyl-1H-pyrazol-1-yl)-N6-(1-(thiazol-2-yl)ethyl)pyrimidine-4,6-diamine] | + (+ means >1 uM)
7 | Cc1cc(C)n(-c2nc(NC3CCC(F)(F)CC3)cc(NC3CCN(C)C3=O)n2)n1 (centres unmarked) [Compound 125, 3-((6-((4,4-difluorocyclohexyl)amino)-2-(3,5-dimethyl-1H-pyrazol-1-yl)pyrimidin-4-yl)amino)-1-methylpyrrolidin-2-one] | + (+ means >1 uM)
8 | Cc1cc(C)n(-c2cc(-n3cccn3)cc(NC3CCC(F)(F)CC3)n2)n1 [Compound 127, N-(4,4-difluorocyclohexyl)-6-(3,5-dimethyl-1H-pyrazol-1-yl)-4-(1H-pyrazol-1-yl)pyridin-2-amine] | ++ (++ means 200 nM-1000 nM)
9 | Cc1cc(C)n(-c2nc(NC3CCC(F)(F)CC3)cc(N[C@@H]3CCN(C)C3=O)n2)n1 [Compound 129, (−)-3-((6-((4,4-difluorocyclohexyl)amino)-2-(3,5-dimethyl-1H-pyrazol-1-yl)pyrimidin-4-yl)amino)-1-methylpyrrolidin-2-one] | + (+ means >1 uM)
10 | CC(=O)N1CCN(c2cc(NC3CCC(F)(F)C3)nc(-n3nc(C)cc3C)n2)CC1 (centres unmarked) [Compound 130, 1-(4-(6-((3,3-difluorocyclopentyl)amino)-2-(3,5-dimethyl-1H-pyrazol-1-yl)pyrimidin-4-yl)piperazin-1-yl)ethan-1-one] | + (+ means >1 uM)
11 | Cc1cc(C)n(-c2nc(NC3CCC(F)(F)CC3)cc(C(N)=O)n2)n1 [Compound 131, 6-((4,4-difluorocyclohexyl)amino)-2-(3,5-dimethyl-1H-pyrazol-1-yl)pyrimidine-4-carboxamide] | + (+ means >1 uM)
12 | CC(=O)N1CCN(c2cc(N(C)C3CCC(F)(F)CC3)nc(-n3nc(C)cc3C)n2)CC1 [Compound 132, 1-(4-(6-((4,4-difluorocyclohexyl)(methyl)amino)-2-(3,5-dimethyl-1H-pyrazol-1-yl)pyrimidin-4-yl)piperazin-1-yl)ethan-1-one] | ++ (++ means 200 nM-1000 nM)
13 | Cc1cc(C)n(-c2nc(NC3CCC(F)(F)CC3)cc(NC3CCCN(C)C3=O)n2)n1 (centres unmarked) [Compound 133, 3-((6-((4,4-difluorocyclohexyl)amino)-2-(3,5-dimethyl-1H-pyrazol-1-yl)pyrimidin-4-yl)amino)-1-methylpiperidin-2-one] | + (+ means >1 uM)
14 | CC(=O)N1CCN(c2cc(NC3CCC(F)(F)CC3)nc(-n3nc(C)cc3C)c2)CC1 [Compound 134, 1-(4-(2-((4,4-difluorocyclohexyl)amino)-6-(3,5-dimethyl-1H-pyrazol-1-yl)pyridin-4-yl)piperazin-1-yl)ethan-1-one] | ++ (++ means 200 nM-1000 nM)
15 | Cc1cc(C)n(-c2nc(NC3CCC(F)(F)CC3)cc(C(C)O)n2)n1 (centres unmarked) [Compound 136] | ++ (++ means 200 nM-1000 nM)
16 | Cc1cc(C)n(-c2nc(CO)cc(NC3CCC(F)(F)CC3)n2)n1 [Compound 137, (6-((4,4-difluorocyclohexyl)amino)-2-(3,5-dimethyl-1H-pyrazol-1-yl)pyrimidin-4-yl)methanol] | ++ (++ means 200 nM-1000 nM)

Row | Compound | SC100
17 | Cc1ccn(-c2nc(NC3CCC(F)(F)CC3)cc(N3CC(C)(O)C3)n2)n1 [Compound 140, 1-(6-((4,4-difluorocyclohexyl)amino)-2-(3-methyl-1H-pyrazol-1-yl)pyrimidin-4-yl)-3-methylazetidin-3-ol] | + (+ means >1 uM)
18 | Cc1ccn(-c2nc(NC3CCC(F)(F)CC3)cc(NC3COC3)n2)n1 [Compound 141, N4-(4,4-difluorocyclohexyl)-2-(3-methyl-1H-pyrazol-1-yl)-N6-(oxetan-3-yl)pyrimidine-4,6-diamine] | ++ (++ means 200 nM-1000 nM)
19 | Cc1cc(C)n(-c2nc(NC3CCC(F)(F)CC3)cc(C(F)F)n2)n1 [Compound 142, N-(4,4-difluorocyclohexyl)-6-(difluoromethyl)-2-(3,5-dimethyl-1H-pyrazol-1-yl)pyrimidin-4-amine] | + (+ means >1 uM)
20 | Cc1ccn(-c2nc(NC3CCC(F)(F)CC3)cc(N3CC(N(C)C)C3)n2)n1 [Compound 143, N-(4,4-difluorocyclohexyl)-6-(3-(dimethylamino)azetidin-1-yl)-2-(3-methyl-1H-pyrazol-1-yl)pyrimidin-4-amine] | ++ (++ means 200 nM-1000 nM)
21 | Cc1cc(NC2CCC(C(F)(F)F)CC2)nc(-n2ccc(C)n2)n1 (centres unmarked) [Compound 144, 6-methyl-2-(3-methyl-1H-pyrazol-1-yl)-N-(4-(trifluoromethyl)cyclohexyl)pyrimidin-4-amine] | + (+ means >1 uM)
22 | Cc1cc(C)n(-c2nc(NCc3ncco3)cc(NC3CCC(F)(F)CC3)n2)n1 [Compound 145, N4-(4,4-difluorocyclohexyl)-2-(3,5-dimethyl-1H-pyrazol-1-yl)-N6-(oxazol-2-ylmethyl)pyrimidine-4,6-diamine] | + (+ means >1 uM)
23 | Cc1ccn(-c2nc(NCC(C)(C)C)cc(NC3CCC(F)(F)CC3)n2)n1 [Compound 146, N4-(4,4-difluorocyclohexyl)-2-(3-methyl-1H-pyrazol-1-yl)-N6-neopentylpyrimidine-4,6-diamine] | ++ (++ means 200 nM-1000 nM)
24 | Cc1ccn(-c2nc(NC3CCC(F)(F)CC3)cc(NC3CC(F)(F)C3)n2)n1 [Compound 147, N4-(3,3-difluorocyclobutyl)-N6-(4,4-difluorocyclohexyl)-2-(3-methyl-1H-pyrazol-1-yl)pyrimidine-4,6-diamine] | ++ (++ means 200 nM-1000 nM)
25 | Cc1cc(NC2CCC(F)(F)CC2)nc(-n2ccc(C)n2)n1 [Compound 148, N-(4,4-difluorocyclohexyl)-6-methyl-2-(3-methyl-1H-pyrazol-1-yl)pyrimidin-4-amine] | ++ (++ means 200 nM-1000 nM)
26 | CC(=O)N1CCN(c2cc(NC3CCC(C(F)(F)F)CC3)nc(-n3nc(C)cc3C)n2)CC1 (centres unmarked) [Compound 149, 1-(4-(2-(3,5-dimethyl-1H-pyrazol-1-yl)-6-((4-(trifluoromethyl)cyclohexyl)amino)pyrimidin-4-yl)piperazin-1-yl)ethan-1-one] | ++ (++ means 200 nM-1000 nM)
27 | Cc1cc(NC2CCC(F)(F)C2)nc(-n2ccc(C)n2)n1 (centres unmarked) [Compound 150, N-(3,3-difluorocyclopentyl)-6-methyl-2-(3-methyl-1H-pyrazol-1-yl)pyrimidin-4-amine] | + (+ means >1 uM)
28 | Cc1ccn(-c2nc(NC3CCC(F)(F)CC3)cc(OC3CN(C(=O)OC(C)(C)C)C3)n2)n1 [Compound 151, tert-butyl 3-((6-((4,4-difluorocyclohexyl)amino)-2-(3-methyl-1H-pyrazol-1-yl)pyrimidin-4-yl)oxy)azetidine-1-carboxylate] | ++ (++ means 200 nM-1000 nM)
29 | Cc1cc(C)n(-c2nc(NC3CCC(F)(F)CC3)cc(C(C)(C)O)n2)n1 [Compound 152, 2-(6-((4,4-difluorocyclohexyl)amino)-2-(3,5-dimethyl-1H-pyrazol-1-yl)pyrimidin-4-yl)propan-2-ol] | + (+ means >1 uM)
30 | Cc1ccn(-c2cc(S(C)(=O)=O)cc(NC3CCC(F)(F)CC3)n2)n1 [Compound 153, N-(4,4-difluorocyclohexyl)-6-(3-methyl-1H-pyrazol-1-yl)-4-(methylsulfonyl)pyridin-2-amine] | + (+ means >1 uM)
31 | Cc1cc(C)n(-c2cccc(NC3CCC(F)(F)CC3)n2)n1 [Compound 154, N-(4,4-difluorocyclohexyl)-6-(3,5-dimethyl-1H-pyrazol-1-yl)pyridin-2-amine] | + (+ means >1 uM)
32 | Cc1ccn(-c2nc(NC3CCC(F)(F)CC3)cc(N3CC4C(N)C4C3)n2)n1 (centres unmarked) [Compound 155, 3-(6-((4,4-difluorocyclohexyl)amino)-2-(3-methyl-1H-pyrazol-1-yl)pyrimidin-4-yl)-3-azabicyclo[3.1.0] hexan-6-amine] | + (+ means >1 uM)
